From US20230348578A1, “CONFORMATION-SPECIFIC ANTIBODIES THAT BIND TAU PROTEIN AND USES THEREOF” (Beth Israel Deaconess Medical Center, Inc., priority 2020, published 2023) come the findings set out here.

The assay relates to primary neurons. Kind of assay: Death of primary neurons with purified cis P-tau. Format: cell-based.

Where a SMILES comes first, the peptide text is derived from it. The star is where a group is joined. Cbz = O=C(OCc1ccccc1)*; CH2F = FC*

Take `COC(=O)C[C@H](NC(=O)[C@H](C)NC(=O)[C@@H](NC(=O)OCc1ccccc1)C(C)C)C(=O)CF` [Z-VAD-FMK] (Cbz-Val-Ala-Asp(OMe)-CH2F): the “death in primary neurons induced by purified cis P-tau” value is given as “blocked”.
